One series deals with T47D. Nature of the series: Inhibition of mammary carcinoma cell line T47D. As to conditions: Table 5, human, ERα+, HER2−. Type of series: cell-based. The protocol: 3-(4,5-Dimethylthiazol-2-yl)-2,5-diphenyltetrazolium Bromide (MTT) Cell Proliferation Assay. To cells grown in 96-well-tissue culture plate, 20 μl/well of MTT solution (5 mg/ml in PBS) was added. After 1-2 hours incubation at 37° C., the plate was centrifuged. Supernatant was discarded and 100 μl DMSO was added to dissolve water insoluble formazan, and the absorbance was read at 540 nm with a plate reader.

Series [1] can be described thus: Toxicity / tolerance of dosing in mice. Format: in vivo. The method, then: Study 1 was performed by dose escalation of SC HBB from 4 mg/kg qd to 12 mg/kg qd with female CD-1 mice (Envigo) approximately 4-8 weeks of age. N=5 mice per HBB dose group, n=10 naïve control mice.
Study 2 two was performed by dose escalation of SC HBB from 16 mg/kg qd to 24 mg/kg qd with female BALB/c mice (Envigo) approximately 6-8 weeks of age. N=4 mice per HBB dose group, n=3 naïve control mice
Study 3 was performed by dose escalation of SC HBB from 16 mg/kg qd to 24 mg/kg qd with female C57BL/6 mice (CR) approximately 6-8 weeks of age. N=12 for HBB dose group, n=3 naïve control mice.

For another series, the system named is MCF-7 tumors. The conditions noted are these: background statement; cited from earlier work.
Another series has as its target CYP3A4 (Homo sapiens, UniProt P08684). Nature of the series: CYP3A4 Supersome mediated EET biosynthesis. Type of series: biochemical. Further details: purchased Corning; host or cells: insect cells (microsomes). The method, then: FIG. 1. Effects of HCB on CYP3A4 Supersome™ mediated EET biosynthesis. A 50 ul reaction in a 1.5 ml microcentrifuge tube contains the following components: arachidonic acid (60 μM), NDAPH (2 mM), DMSO or drug, CYP3A4 Supersome™ (1 μM) in potassium phosphate buffer (pH=7.4). The reaction was initiated by the addition of Supersome™ to the reaction mixture. After incubation at 37° C. for 30 minutes, 50 ul of acetonitrile spiked with 13C-EET internal standards was added and vortexed vigorously to terminate the reaction. Microcentrifuge tubes were centrifuged at 16,000×rpm for 10 min to precipitate proteins and other insoluble debris and 80 ul supernatant was transferred into HPLC vials and analyzed by an LC-MS as described previously (1). Results are expressed as mean±S.D. (n=3).
FIG. 2. Effects of DCB and HCB on CYP3A4 Supersome™ mediated EET biosynthesis. A 0.5 ml reaction in a 10 ml glass test tube contains the following components: arachidonic acid ([…]), NDAPH (2 mM), DMSO or drug solution (0.5 μl), CYP3A4 Supersome™ (80 nM) and 450.5 ul potassium phosphate buffer (pH=7.4). The reaction was initiated by the addition of Supersome™ to the rest. After incubation at 37° C. for 30 minutes, 0.5 ml of dichloromethane was added and vortexed vigorously to terminate the reaction. Organic phase and aqueous phase were separated by centrifugation at 3,000×rpm for 10 minutes. Two hundred microliters of the organic phase was withdrawn and evaporated to dryness. The residues were reconstituted with 20 ul methanol containing ^13C-EET internal standards and analyzed by an LC-MS as described previously (1). Results are expressed as mean±S.D. (n=3, * indicates a statistically significant difference from the control).
Recombinant Microsomal CYP-mediated EET Biosynthesis. CYP Supersomes™ (Corning, NY) (1 μM, final concentration) were incubated at 37° C. for 30 min in the presence of AA (120 μM) in 50 μl potassium phosphate buffer, (50 mM, pH 7.4), containing 1 mM EDTA and 1 mM NADPH. Reactions were terminated by addition of 50 μL of acetonitrile spiked with ^13C-EET internal standards followed by vigorous vortexing. After centrifugation at 16,000×rpm for 10 minutes to precipitate proteins and other insoluble debris and 80 μL supernatant was transferred into HPLC vials and analyzed by with an LC-ESI/MRM/MS method.
LC-ESI/MRM/MS Method for EET Measurement. EETs were measured by an LC-ESI/MRM/MS analytical method on a ThermoFisher Vantage triple quadrupole mass spectrometer (ThermoFisher, San Jose, CA) coupled with an UltiMate 3000 HPLC (ThermoFisher, San Jose, CA), using argon as the collision gas. Negative ion monitoring was performed at the following diagnostic product ions: 319 m/z→155 m/z for 8,9-EET; 319 m/z→179 m/z for 11,12-EET; 319 m/z→219 m/z for 14,15-EET; 339 m/z→163 m/z for 8,9-[^13C-20]EET; 339 m/z→233 m/z for 11,12-[^13C-20]EET; and 339 m/z→259 m/z for 14,15-[^13C-20]EET. Base-line resolution of EET regioisomers was achieved on a Phenomenex Luna C18 (2) reverse phase capillary column (250×0.5 mm, 5-μm particles) using the following mobile phase combinations: isocratic 5% B for 5 min, gradient 5-70% B for 5 min, hold at 70% for 30 min and then 95% for 10 min; A: 0.01% acetic acid in water, B: 0.01% acetic acid in acetonitrile; 10 μl/min flow rate. A standard curve was obtained by linear regression of the peak area ratio of authentic EET regioisomers against internal standards. The amount of EETs in samples was calculated according to the standard curve.

Where two headings read alike, the source gives them in different places.

One may read the IC50 as the concentration at which inhibition is half-maximal. As usually defined, the MTD is the largest dose that counted as tolerated. A high value points to better tolerability. What is called Ki is the equilibrium dissociation constant of an inhibitor or competing ligand from its target.

CYP3A4, sequence (P08684 whole entry): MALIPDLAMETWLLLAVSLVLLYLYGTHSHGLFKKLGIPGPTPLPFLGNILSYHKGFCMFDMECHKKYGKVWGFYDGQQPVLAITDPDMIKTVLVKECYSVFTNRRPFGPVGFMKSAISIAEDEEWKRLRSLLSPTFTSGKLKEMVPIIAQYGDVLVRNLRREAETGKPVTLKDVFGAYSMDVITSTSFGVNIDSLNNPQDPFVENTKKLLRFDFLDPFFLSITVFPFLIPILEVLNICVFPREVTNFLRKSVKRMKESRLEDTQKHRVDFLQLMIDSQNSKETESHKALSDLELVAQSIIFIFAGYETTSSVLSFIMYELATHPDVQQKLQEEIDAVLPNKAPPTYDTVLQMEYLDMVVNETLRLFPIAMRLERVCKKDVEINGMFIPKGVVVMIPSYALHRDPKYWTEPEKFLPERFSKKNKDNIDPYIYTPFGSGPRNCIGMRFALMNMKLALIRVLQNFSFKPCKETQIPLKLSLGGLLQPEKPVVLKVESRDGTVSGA

Take `CCCCCCNC(=N)NC(=N)NCc1ccccc1` [HBB, N1-hexyl-N5-benzyl-biguanide]: the IC50 in the series on T47D was determined as 22 µM. In series [1] (SC 16 to 24 mg/kg qd, female BALB/c mice, FIG. 21), the “tolerance of daily SC dosing above 12 mg/kg” value is listed as “not as well tolerated”. Further, the “tolerance of dose escalation” value in series [1] (daily SC 4 to 12 mg/kg over approximately 2 months, female CD-1 mice, FIG. 20) is given as “well tolerated”. In addition, the MTD was 12 mg/kg in series [1] (female, CD-1 (Study 1), BALB/c (Study 2), C57BL/6 (Study 3), mouse, in vivo, sc, daily) and 6 mg/kg in series [1] (mouse, in vivo, ip, 4 times per week, no more than 2 consecutive days). Moreover, the “effect on splenic or lymph node CD4 or CD8 T cells” value in series [1] (mice) is “no observed effect”. For the same molecule, in series [1] (mouse, in vivo), the toxicity in mice entry is listed as “acceptable toxicity”. The “tolerance of daily SC dosing” value in series [1] (study day 3 to day 26, female C57BL/6 mice, FIG. 22) was “well tolerated”. Also, the “growth of the MCF-7 ER+ mammary tumor model” value in the series with MCF-7 tumors is listed as “inhibits growth”.

As to `CCCCCCNC(=N)NC(=N)NCC12C3C4C5C3C1C5C42` (centres unmarked) [HCB, Hexyl Cubanomethyl Biguanide], the IC50 is 28 µM on CYP3A4 ((±)8,9-EET, Example B text, read-out: IC50, CYP3A4 biosynthesis of (±)8,9-EET); 56 µM at CYP3A4 ((±)11,12-EET, Example B text, read-out: IC50, CYP3A4 biosynthesis of (±)11,12-EET); 3.8 µM at CYP3A4 ((±)14,15-EET, Example B text, read-out: IC50, CYP3A4-mediated biosynthesis of (±)14,15-EET); 64.8 ± 6.5 µM on CYP3A4 (FIG. 1, (±)8,9-EET, curve fitting, read-out: IC50 for (±)8,9-EET biosynthesis); 26.5 ± 1.9 µM on CYP3A4 (FIG. 1, (±)11,12-EET, curve fitting, read-out: IC50 for (±)11,12-EET biosynthesis); 4.7 ± 0.2 µM on CYP3A4 (FIG. 1, (±)14,15-EET, arachidonic acid 60 μM, CYP3A4 Supersome 1 μM, 30 min, curve fitting, read-out: IC50 for (±)14,15-EET biosynthesis). The Ki at CYP3A4 ((±)-14,15-EET, read-out: Ki, inhibition of biosynthesis of (±)-14,15-EET) was determined as 4.7 µM. In addition, the “fold more potent than HBB for inhibiting biosynthesis of (±)14,15-EET” value on CYP3A4 (HCB vs HBB, CYP3A4) is listed as ~2.5 fold.

The values above are taken from patent US20240067603A1, “CUBANYL BIGUANIDE COMPOUNDS” (REGENTS OF THE UNIVERSITY OF MINNESOTA, priority 2020, published 2024).
